± gives the standard deviation of the averaged measurements.
Each test system was assayed with C=C1C[C@H]2C=Nc3cc(OCCCCCOc4cc5c(cc4OC)C(=O)N4CC(=C)C[C@H]4C=N5)c(OC)cc3C(=O)N2C1 [SG2057] (assay: absolute IC50 (cell viability, CellTiter-Glo); higher = less potent). Conditions: treatment time: 3 days.
Experimental: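 Large cancer cell line panel screens in 384-well plates. Cells were treated for 3 days with a 9-point dose titration of the free PBD dimer SG2057; viability was read with CellTiter-Glo. Absolute IC50 came from a four-parameter Hill fit normalised to the median of vehicle (DMSO) wells. Several independent screens (projects) per cell line are averaged; values in µM, lowest-dose floor about 1.524e-5 µM.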

Test System	absolute IC50 [nM]
Hep 3B2.1-7	3.83 ± 2.6
Hep G2	2.2
Hepa 1-6	0.286
Hs 38.T	1.36 ± 1.7
Hs 294T	0.469 ± 0.75
Hs 578T	1.51 ± 1.3
Hs 683	0.626 ± 1
Hs 695T	0.547 ± 0.21
Hs 746T	1.81 ± 3.4
Hs 839.T	6.79
Hs 852.T	0.582 ± 0.063
Hs 895.T	7.53
HuCCT1	2.63 ± 2.5
ID8	0.292
IGR-1	0.75 ± 0.91
IGR-37	0.339 ± 0.47
IGR-39	0.0981 ± 0.02
IGROV-1	1.14 ± 1.6
IM-95	2.41
IM-95m	3.43
Ishikawa	0.311
JC	0.463
JHH-1	2.07 ± 3.1
JHH-2	4.84 ± 8.1

Test System	absolute IC50 [nM]
JHH-4	0.555 ± 0.54
JHH-5	0.248
JHH-6	3.4
JHH-7	1.94
JJ012	6.35
JJ012 (DODx)	1.42
JJN-3	0.816 ± 1.7
JVM-2	0.374 ± 0.48
K-562	0.617 ± 0.68
KALS-1	0.336
KARPAS-299	0.581 ± 1.1
KARPAS-620	2.96
KARPAS-1106P	0.158 ± 0.045
KATO III	5.09
KCI-MOH1	3.23 ± 2
KE-97	0.193 ± 0.11
KELLY	0.12
KG-1	1.22 ± 0.91
KHM-1B	0.335 ± 0.24
KHM-5M	0.561
KINGS-1	2.75
KLE	12.1 ± 8.9
KLM-1	1 ± 0.96
KLN 205	2.12

Test System	absolute IC50 [nM]
KM-12	3.65
KMM-1	0.515 ± 0.079
KMRC-1	1.26
KMRC-20	3.45
KMS-11	0.761 ± 0.19
KMS-12-PE	0.433
KMS-21BM	0.26 ± 0.051
KMS-26	0.0823 ± 0.024
KMS-27	0.164 ± 0.0027
KMS-28PE	0.0647 ± 0.036
KMS-34	0.272 ± 0.27
KNS-62	1.4 ± 2.5
KNS-81	0.189
KP4	0.251 ± 0.14
KP-2	4.15
KP-3	2.41 ± 1.7
KP-3L	2.69 ± 0.26
KP-N-SI9s	0.0551
KP-N-YN	0.0159
KPL-1	2.48 ± 1.5
KPP14388	0.96
KPP14388 LN	0.49
KPP14449	1.53
KPP-1 (KPP-PDAC) XENOGRAFT	0.168

Test System	absolute IC50 [nM]
KPR3070	1.35
KPR3351	0.931
KR7110	1.36
KR7251	0.557
KR7414	1.45
KURAMOCHI	4.22
KYSE-30	0.368
KYSE-140	0.496
KYSE-150	0.194
KYSE-180	0.667
KYSE-270	0.409
KYSE-410	0.579
KYSE-450	0.564
KYSE-510	0.0686
KYSE-520	1.01
Kasumi-1	4.11
L-363	0.384 ± 0.54
LA-4	1.59
LCLC-97TM1	1.4
LCLC-103H	1.11 ± 1.2
LL/2	0.449
LN-18	2.2 ± 1.4
LN-229	2.6 ± 1.4
LNCAP clone FGC	0.365 ± 0.13

Test System	absolute IC50 [nM]
LNCaP/Ner	0.0717
LS1034	5.72
LTPA	1.46
LUDLU-1	9.43
LXFL529	2.72
Li-7	4.51
LoVo	1.52 ± 0.43
MAVER-1	0.0955 ± 0.065
MC-38	0.186
MC-38 Ovalbumin	0.208
MC-IXC	0.0163
MCAS	0.42 ± 0.58
MCF 10A	3.78 ± 2.7
MCF 10A AKT2 -/- (Sigma)	2.14
MCF 10A CDH1 -/- (Sigma)	2.53
MCF 10A PTEN -/- (Sigma)	2.54
MCF-7	2.5 ± 1.7
MDA-MB-157	1.86 ± 1.7
MDA-MB-361	1.96 ± 2.5
MDA-MB-435	1.76 ± 2.4
MDA-MB-436	0.327 ± 0.2
MDA-MB-453	3.21 ± 2.3
MDA-MB-468	0.353 ± 0.36
ME-180	0.155

Test System	absolute IC50 [nM]
MEL-JUSO	0.875 ± 1
MES-SA	0.135 ± 0.14
MFM-223	0.743 ± 0.14
MG-63	0.284
MHH-ES-1	0.159
MKN-1	0.867 ± 1.1
MKN-7	1.67
MKN-45	1.08 ± 0.44
MKN-74	2.17
ML-2	0.0572 ± 0.013
MM.1S	0.474 ± 0.49
MMAc	0.868
MOLM-16	0.27 ± 0.29
MOLP-8	0.212 ± 0.014
MOR	8.9
MPC-11	0.229
MR1-3	0.256
MS751	0.683
MT-3	0.947 ± 0.64
MX-1	2.51 ± 2
MeWo	1.08 ± 0.37
NAMALWA	0.0643 ± 0.031
NB69	0.612
NB(TU)1-10	0.604

Test System	absolute IC50 [nM]
NB-1	< 0.0152
NB-4	0.29
NCI-H28	0.89
NCI-H146	0.508
NCI-H187	0.1
NCI-H196	2.69
NCI-H226	1.27 ± 2.5
NCI-H322T	0.912
NCI-H358	0.959 ± 0.56
NCI-H441	0.535
NCI-H446	0.244
NCI-H460	0.242 ± 0.2
NCI-H520	4.03 ± 2.5
NCI-H522	0.544
NCI-H650	2.97 ± 3.3
NCI-H661	1.78 ± 3.4
NCI-H716	6.9 ± 3.7
NCI-H727	6.75
NCI-H810	1.42
NCI-H820	1.48
NCI-H838	1.34
NCI-H889	1.32
NCI-H920	9.13
NCI-H1155	0.221 ± 0.2

Test System	absolute IC50 [nM]
NCI-H1339	0.155
NCI-H1355	2.88 ± 3
NCI-H1395	1.66
NCI-H1437	2.05 ± 2
NCI-H1563	3.61
NCI-H1581	0.852 ± 0.72
NCI-H1648	8.58
NCI-H1650	2.52
NCI-H1651	0.443
NCI-H1666	0.888 ± 0.43
NCI-H1703	0.36 ± 0.39
NCI-H1734	0.237
NCI-H1770	7.47
NCI-H1792	2.24
NCI-H1838	2.32 ± 2.8
NCI-H1869	2.35
NCI-H1915	2.4
NCI-H1930	0.0346
NCI-H1944	1.06 ± 0.29
